Positions count from the first letter of the chain named. Where two headings read alike, the source gives them in different places.
What was measured:
RET (658-1114) = biological target: T1, RET (658-1114) (Homo sapiens, UniProt P07949); test: HiBiT-Degradation, RET wild-type degradation assay (Nano-Glo HiBiT Lytic), 293T.144 cells; format: cell-based; conditions: for Emax / DC50: 6.0 hours
T1 construct: 658-1114; expressed in transfected cells; host or cells: 293T.144 (293T cells, generated in-house)
T1 sequence (P07949 658-1114): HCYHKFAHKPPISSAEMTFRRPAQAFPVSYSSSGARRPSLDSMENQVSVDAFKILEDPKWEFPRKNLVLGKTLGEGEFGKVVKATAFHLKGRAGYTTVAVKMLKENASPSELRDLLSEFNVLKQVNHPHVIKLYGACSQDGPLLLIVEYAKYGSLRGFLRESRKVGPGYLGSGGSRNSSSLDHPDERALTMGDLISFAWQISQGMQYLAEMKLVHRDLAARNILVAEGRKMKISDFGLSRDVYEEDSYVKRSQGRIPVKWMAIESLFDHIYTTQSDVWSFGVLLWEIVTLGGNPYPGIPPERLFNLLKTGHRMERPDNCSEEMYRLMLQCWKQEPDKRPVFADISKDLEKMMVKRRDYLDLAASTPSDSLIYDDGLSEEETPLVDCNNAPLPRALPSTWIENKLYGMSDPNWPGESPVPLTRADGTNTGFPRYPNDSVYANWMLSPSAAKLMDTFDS
In short: (§1)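 Degradation after 6 h compound exposure (top 10 μM, 11 half-log points, duplicates) measured by Nano-Glo HiBiT lytic luminescence. Cells: 293T.144 carrying wild-type and 293T.165 carrying G810R HiBiT-RET kinase domain; curves yield DC50 and Emax.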

RET(KD: 658-1114 G810R) = biological target: T2, RET(KD: 658-1114 G810R) (Homo sapiens, UniProt P07949, G810R); test: HiBiT-Degradation, RET G810R degradation assay (Nano-Glo HiBiT Lytic), 293T.165 cells; format: cell-based; conditions: for Emax / DC50: 6.0 hours
T2 construct: 658-1114; expressed in transfected cells; host or cells: 293T.165 (293T cells, generated in-house)
T2 sequence (P07949 658-1114 G810R): T1 sequence (P07949 658-1114) with G153R
In short: as §1

[1] = % remaining protein, read-out: 293T.144 RET (658-1114) 6.0 hours (Emax)
[2] = half-maximal degradation concentration, read-out: 293T.144 RET (658-1114) 6.0 hours (DC50)
[3] = % remaining protein, read-out: 293T.165 RET(KD: 658-1114 G810R) 6.0 hours (Emax)
[4] = half-maximal degradation concentration, read-out: 293T.165 RET(KD: 658-1114 G810R) 6.0 hours (DC50)
[5] = RET wild-type, read-out: HiBiT-Degradation 293T.144 RET (658-1114) 6.0 hours (DC50)
[6] = RET wild-type, read-out: HiBiT-Degradation 293T.144 RET (658-1114) 6.0 hours (Emax)
[7] = RET G810R, read-out: HiBiT-Degradation 293T.165 RET(KD: 658-1114 G810R) 6.0 hours (DC50)
[8] = RET G810R, read-out: HiBiT-Degradation 293T.165 RET(KD: 658-1114 G810R) 6.0 hours (Emax)

Row | SMILES | 293T.144 RET (658-1114) 6.0 hours (IP) [nM] (RET (658-1114)) | Emax (RET (658-1114); [1]) [%] | DC50 (RET (658-1114); [2]) [nM] | 293T.165 RET(KD: 658-1114 G810R) 6.0 hours (IP) [nM] (RET(KD: 658-1114 G810R)) | Emax (RET(KD: 658-1114 G810R); [3]) [%] | DC50 (RET(KD: 658-1114 G810R); [4]) [nM] | 293T.144 RET (658-1114) 6.0 hours (IP) [nM] (RET (658-1114); HiBiT-Degradation) | DC50 (RET (658-1114); HiBiT-Degradation, read-out: 293T.144 RET (658-1114) 6.0 hours (DC50)) [nM] | Emax (RET (658-1114); HiBiT-Degradation, read-out: 293T.144 RET (658-1114) 6.0 hours (Emax)) [%] | 293T.165 RET(KD: 658-1114 G810R) 6.0 hours (Emax) (RET(KD: 658-1114 G810R); HiBiT-Degradation) | 293T.165 RET(KD: 658-1114 G810R) 6.0 hours (IP) [nM] (RET(KD: 658-1114 G810R); HiBiT-Degradation) | DC50 (RET(KD: 658-1114 G810R); HiBiT-Degradation, read-out: 293T.165 RET(KD: 658-1114 G810R) 6.0 hours (DC50)) [nM] | HiBiT-Degradation 293T.144 RET (658-1114) 6.0 hours (IP) [nM] (RET (658-1114); RET wild-type) | DC50 (RET (658-1114); [5]) [nM] | Emax (RET (658-1114); [6]) [%] | HiBiT-Degradation 293T.165 RET(KD: 658-1114 G810R) 6.0 hours (IP) [nM] (RET(KD: 658-1114 G810R); RET G810R) | DC50 (RET(KD: 658-1114 G810R); [7]) [nM] | Emax (RET(KD: 658-1114 G810R); [8]) [%]
1 | COc1ccc(CC2(C(=O)NC(C)C)CCN(c3ccc(-c4nc(-c5cnn([C@H]6CC[C@H](N7CCN(c8cc(OC)c(NC9CCC(=O)NC9=O)cc8F)CC7)CC6)c5)cn5ncc(C#N)c45)cn3)CC2)nc1 (stereo partly drawn) [Compound 216, 1-[5-[3-cyano-6-[1-[4-[4-[4-[(2,6-dioxo-3-piperidyl)amino]-2-fluoro-5-methoxy-phenyl]piperazin-1-yl]cyclohexyl]pyrazol-4-yl]pyrazolo[1,5-a]pyrazin-4-yl]-2-pyridyl]-N-isopropyl-4-[(5-methoxy-2-pyridyl)methyl]piperidine-4-carboxamide] | ++++ (<50 nM = ++++) | < 30 | < 50 | +++ (<100 nM = +++) | < 30 | < 100 |  |  |  |  |  |  |  |  |  |  |  | 
2 | COc1ccc(CN2C3COCC2CN(c2ccc(-c4nc(-c5cnn([C@H]6CC[C@H](N7CCN(c8cc(OC)c(NC9CCC(=O)NC9=O)cc8F)CC7)CC6)c5)cn5ncc(C#N)c45)cn2)C3)cn1 (stereo partly drawn) [Compound 165, 6-[1-[4-[4-[4-[(2,6-dioxo-3-piperidyl)amino]-2-fluoro-5-methoxy-phenyl]piperazin-1-yl]cyclohexyl]pyrazol-4-yl]-4-[6-[9-[(6-methoxy-3-pyridyl)methyl]-3-oxa-7,9-diazabicyclo[3.3.1]nonan-7-yl]-3-pyridyl]pyrazolo[1,5-a]pyrazine-3-carbonitrile] | ++++ (<50 nM = ++++) | < 30 | < 50 | +++ (<100 nM = +++) | < 30 | < 100 |  |  |  |  |  |  |  |  |  |  |  | 
3 | COc1ccc(CN2[C@@H]3COC[C@H]2CN(c2ccc(-c4nc(-c5cnn([C@H]6CC[C@@H](N7CCN(c8cc9c(cc8F)c(N8CCC(=O)NC8=O)nn9C)CC7)CC6)c5)cn5ncc(C#N)c45)cn2)C3)cn1 (single isomer, unassigned) [Compound 152] | ++++ (<50 nM = ++++) | < 30 | < 50 | ++++ (<50 nM = ++++) | < 30 | < 50 |  |  |  |  |  |  |  |  |  |  |  | 
4 | CC(C)NC(=O)C1(C)CCN(c2ccc(-c3cc(-c4cnn(CCCCCCN5CCC(c6ccc7c(N8CCC(=O)NC8=O)nn(C)c7c6)CC5)c4)cn4ncc(C#N)c34)cn2)CC1 [Compound 82, 1-[5-[3-cyano-6-[1-[6-[4-[3-(2,4-dioxohexahydropyrimidin-1-yl)-1-methyl-indazol-6-yl]-1-piperidyl]hexyl]pyrazol-4-yl]pyrazolo[1,5-a]pyridin-4-yl]-2-pyridyl]-N-isopropyl-4-methyl-piperidine-4-carboxamide] |  |  |  |  | < 30 | < 100 |  |  |  |  |  |  | ++++ (< 50 nM = ++++) | < 50 | < 30 | ++++ (< 50 nM = ++++) | < 100 | < 30

Other lines, results leading:

Row | 293T.144 RET (658-1114) 6.0 hours (IP) [nM] (RET (658-1114)) | Emax (RET (658-1114); [1]) [%] | DC50 (RET (658-1114); [2]) [nM] | 293T.165 RET(KD: 658-1114 G810R) 6.0 hours (IP) [nM] (RET(KD: 658-1114 G810R)) | Emax (RET(KD: 658-1114 G810R); [3]) [%] | DC50 (RET(KD: 658-1114 G810R); [4]) [nM] | 293T.144 RET (658-1114) 6.0 hours (IP) [nM] (RET (658-1114); HiBiT-Degradation) | DC50 (RET (658-1114); HiBiT-Degradation, read-out: 293T.144 RET (658-1114) 6.0 hours (DC50)) [nM] | Emax (RET (658-1114); HiBiT-Degradation, read-out: 293T.144 RET (658-1114) 6.0 hours (Emax)) [%] | 293T.165 RET(KD: 658-1114 G810R) 6.0 hours (Emax) (RET(KD: 658-1114 G810R); HiBiT-Degradation) | 293T.165 RET(KD: 658-1114 G810R) 6.0 hours (IP) [nM] (RET(KD: 658-1114 G810R); HiBiT-Degradation) | DC50 (RET(KD: 658-1114 G810R); HiBiT-Degradation, read-out: 293T.165 RET(KD: 658-1114 G810R) 6.0 hours (DC50)) [nM] | HiBiT-Degradation 293T.144 RET (658-1114) 6.0 hours (IP) [nM] (RET (658-1114); RET wild-type) | DC50 (RET (658-1114); [5]) [nM] | Emax (RET (658-1114); [6]) [%] | HiBiT-Degradation 293T.165 RET(KD: 658-1114 G810R) 6.0 hours (IP) [nM] (RET(KD: 658-1114 G810R); RET G810R) | DC50 (RET(KD: 658-1114 G810R); [7]) [nM] | Emax (RET(KD: 658-1114 G810R); [8]) [%] | SMILES
5 | ++++ (<50 nM = ++++) | < 30 | < 50 | ++++ (<50 nM = ++++) | < 50 | < 100 |  |  |  |  |  |  |  |  |  |  |  |  | CCC1(C(=O)NC(C)C)CCN(c2ncc(-c3nc(-c4cnn(C5CCN(C(=O)CC6(O)CCN(c7ccc(NC8CCC(=O)NC8=O)cc7Cl)CC6)CC5)c4)cn4ncc(C#N)c34)cc2F)CC1 (stereo not drawn) [Compound 120, 1-[5-[6-[1-[1-[2-[1-[2-chloro-4-[(2,6-dioxo-3-piperidyl)amino]phenyl]-4-hydroxy-4-piperidyl]acetyl]-4-piperidyl]pyrazol-4-yl]-3-cyano-pyrazolo[1,5-a]pyrazin-4-yl]-3-fluoro-2-pyridyl]-4-ethyl-N-isopropyl-piperidine-4-carboxamide]
6 |  |  |  |  | < 50 | < 100 | ++++ (< 50 nM = ++++) | < 50 | < 30 | +++ (<50% = +++) | ++++ (< 50 nM = ++++) | < 100 |  |  |  |  |  |  | CC(C)NC(=O)C1(C(C)C)CCN(c2ccc(-c3cc(-c4cnn(C5CCN(C(=O)CN6CCC(c7ccc(NC8CCC(=O)NC8=O)cc7F)CC6)CC5)c4)cn4ncc(C#N)c34)cn2)CC1 (stereo not drawn) [Compound 56, 1-[5-[3-cyano-6-[1-[1-[2-[4-[4-[(2,6-dioxo-3-piperidyl)amino]-2-fluoro-phenyl]-1-piperidyl]acetyl]-4-piperidyl]pyrazol-4-yl]pyrazolo[1,5-a]pyridin-4-yl]-2-pyridyl]-N,4-diisopropyl-piperidine-4-carboxamide]
7 | ++++ (<50 nM = ++++) | < 30 | < 50 | ++++ (<50 nM = ++++) | < 30 | < 50 |  |  |  |  |  |  |  |  |  |  |  |  | CCC1(C(=O)NC(C)(C)C)CCN(c2ccc(-c3nc(-c4cnn(C5CCN(C(=O)CC6(O)CCN(c7ccc(NC8CCC(=O)NC8=O)cc7F)CC6)CC5)c4)cn4ncc(C#N)c34)cn2)CC1 (stereo not drawn) [Compound 103, N-tert-butyl-1-[5-[3-cyano-6-[1-[1-[2-[1-[4-[(2,6-dioxo-3-piperidyl)amino]-2-fluoro-phenyl]-4-hydroxy-4-piperidyl]acetyl]-4-piperidyl]pyrazol-4-yl]pyrazolo[1,5-a]pyrazin-4-yl]-2-pyridyl]-4-ethyl-piperidine-4-carboxamide]
8 |  |  |  |  | < 50 | < 100 |  |  |  |  |  |  | ++++ (< 50 nM = ++++) | < 50 | < 30 | ++++ (< 50 nM = ++++) | < 100 | < 50 | CCC1(C(=O)NC(C)C)CCN(c2ccc(-c3nc(-c4cnn(C5CCN(C(=O)CC6(O)CCN(c7ccc(NC8CCC(=O)NC8=O)c(F)c7)CC6)CC5)c4)cn4ncc(C#N)c34)cn2)CC1 (stereo not drawn) [Compound 69, 1-[5-[3-cyano-6-[1-[1-[2-[1-[4-[(2,6-dioxo-3-piperidyl)amino]-3-fluoro-phenyl]-4-hydroxy-4-piperidyl]acetyl]-4-piperidyl]pyrazol-4-yl]pyrazolo[1,5-a]pyrazin-4-yl]-2-pyridyl]-4-ethyl-N-isopropyl-piperidine-4-carboxamide]
9 | ++++ (<50 nM = ++++) | < 30 | < 50 | ++++ (<50 nM = ++++) | < 30 | < 50 |  |  |  |  |  |  |  |  |  |  |  |  | CCC1(C(=O)NC2CCOCC2)CCN(c2ccc(-c3nc(-c4cnn([C@H]5CC[C@H](N6CCC(c7ccc(N[C@H]8CCC(=O)NC8=O)cc7F)CC6)CC5)c4)cn4ncc(C#N)c34)cn2)CC1 (stereo in doubt) [Compound 144, 1-(5-(3-cyano-6-(1-((1S,4r)-4-(4-(4-(((S)-2,6-dioxopiperidin-3-yl)amino)-2-fluorophenyl)piperidin-1-yl)cyclohexyl)-1H-pyrazol-4-yl)pyrazolo[1,5-a]pyrazin-4-yl)pyridin-2-yl)-4-ethyl-N-(tetrahydro-2H-pyran-4-yl)piperidine-4-carboxamide]

From patent US12661410B2, “Compounds for targeted degradation of RET” (C4 Therapeutics, Inc., priority 2020, dated 2026)
